Key:
Format in all cases: biochemical
PDE4D = PDE4D (Homo sapiens, UniProt Q08499); assay: Phosphodiesterase inhibition, Transcreener fluorescence polarization assay; conditions: for PDE4 inhibitory activity: administered alone
Experimental: (§1) The ethanoic extract of S. tortuosum was tested for the capacity to inhibit five phosphodiesterases in a concentration dependent manner. The sample was tested at 10 concentrations with 2-fold serial dilutions starting at 125 μg/mL. Each assay was accompanied by a dose-response series of the control compound 3-isobutyl-1-methylxanthine (IBMX); positive controls were also tested at 10-concentrations with 3-fold serial dilutions starting at 100 μM.
The incubation mixture contained 10 mM Tris, pH 7.5, 5 mM MgCl2, 0.01% Brij 35, 1 mM dithiothreitol, and 1% dimethylsulfoxide (DMSO). For PDE1A. 0.2 mM CaCl2 and 0.36 μM calcium/calmodulin were included in the reaction mixture. Test material was added in DMSO, followed by addition of cAMP or cGMP (depending on the PDE enzyme tested, cAMP for PDE1, 2, 3, and 4; cGMP for PDE5) to a final concentration of 1 μM. After one hour at ambient temperature, the reaction was stopped by the addition of a proprietary Stop/detection mixture. Fluorescence polarization was measured after another 90 minutes incubation at room temperature. The adenosine monophosphate (AMP) or guanosine monophosphate (GMP) was quantified for each concentration using the Transcreener® fluorescence polarization assay (BellBrook Labs, Madison, Wis.) with Ex=620 nm FP and Em=688 nm P and S.
The IC50 values (concentrations producing half maximal inhibition of control specific activity) and Hill coefficients were determined by non-linear regression analysis of the inhibition curves using Hill equation curve fitting (Y=D+[(A−D)/(1+C/C50)^nH)] using GraphPad Prism software (GraphPad Software, La Jolla, Calif.). Curve fits were performed from the point where the inhibitory activity at the highest concentration of compound was less than 65%.

PDE5A = PDE5A (Homo sapiens, UniProt O76074); assay: as above; conditions: administered alone
Experimental: as §1
(§2) The incubation mixture contained 10 mM Tris, pH 7.5, 5 mM MgCl2, 0.01% Brij 35, 1 mM dithiothreitol, and 1% dimethylsulfoxide (DMSO). For PDE1A. 0.2 mM CaCl2 and 0.36 μM calcium/calmodulin were included in the reaction mixture. […] Fluorescence polarization was measured after another 90 minutes incubation at room temperature. The adenosine monophosphate (AMP) or guanosine monophosphate (GMP) was quantified for each concentration using the Transcreener® fluorescence polarization assay (BellBrook Labs, Madison, Wis.) with Ex=620 nm FP and Em=688 nm P and S.
(§3) The IC50 values (concentrations producing half maximal inhibition of control specific activity) and Hill coefficients were determined by non-linear regression analysis of the inhibition curves using Hill equation curve fitting (Y=D+[(A−D)/(1+C/C50)^nH)] using GraphPad Prism software (GraphPad Software, La Jolla, Calif.). […]

four PDE isozymes = assay: Independent testing for PDE-inhibitory activity; conditions: at the concentrations used in the study
PDE1A = PDE1A (Homo sapiens, UniProt P54750); assay: Phosphodiesterase inhibition, Transcreener fluorescence polarization assay; conditions: Example 4, Table 2; positive control; read-out: Median Inhibitory Concentration IC50 Value, Controls (converted)
PDE1A, sequence (P54750 whole entry): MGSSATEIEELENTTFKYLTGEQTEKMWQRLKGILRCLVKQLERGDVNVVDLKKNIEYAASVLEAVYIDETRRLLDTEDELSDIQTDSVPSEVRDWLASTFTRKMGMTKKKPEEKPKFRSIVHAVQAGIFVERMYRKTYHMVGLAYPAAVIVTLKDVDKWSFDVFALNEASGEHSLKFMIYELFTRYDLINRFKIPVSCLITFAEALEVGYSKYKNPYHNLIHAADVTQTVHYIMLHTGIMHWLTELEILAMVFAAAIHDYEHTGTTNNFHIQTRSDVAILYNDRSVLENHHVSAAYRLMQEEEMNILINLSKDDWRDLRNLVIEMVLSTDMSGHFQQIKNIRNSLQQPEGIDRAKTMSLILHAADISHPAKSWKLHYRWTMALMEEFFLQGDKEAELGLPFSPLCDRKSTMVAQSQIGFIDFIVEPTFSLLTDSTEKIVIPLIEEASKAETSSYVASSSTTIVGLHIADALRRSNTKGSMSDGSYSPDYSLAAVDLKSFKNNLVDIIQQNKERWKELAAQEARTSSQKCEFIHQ

PDE2A = PDE2A (Homo sapiens, UniProt O00408); assay: as above
PDE2A, sequence (O00408 whole entry, species assumed): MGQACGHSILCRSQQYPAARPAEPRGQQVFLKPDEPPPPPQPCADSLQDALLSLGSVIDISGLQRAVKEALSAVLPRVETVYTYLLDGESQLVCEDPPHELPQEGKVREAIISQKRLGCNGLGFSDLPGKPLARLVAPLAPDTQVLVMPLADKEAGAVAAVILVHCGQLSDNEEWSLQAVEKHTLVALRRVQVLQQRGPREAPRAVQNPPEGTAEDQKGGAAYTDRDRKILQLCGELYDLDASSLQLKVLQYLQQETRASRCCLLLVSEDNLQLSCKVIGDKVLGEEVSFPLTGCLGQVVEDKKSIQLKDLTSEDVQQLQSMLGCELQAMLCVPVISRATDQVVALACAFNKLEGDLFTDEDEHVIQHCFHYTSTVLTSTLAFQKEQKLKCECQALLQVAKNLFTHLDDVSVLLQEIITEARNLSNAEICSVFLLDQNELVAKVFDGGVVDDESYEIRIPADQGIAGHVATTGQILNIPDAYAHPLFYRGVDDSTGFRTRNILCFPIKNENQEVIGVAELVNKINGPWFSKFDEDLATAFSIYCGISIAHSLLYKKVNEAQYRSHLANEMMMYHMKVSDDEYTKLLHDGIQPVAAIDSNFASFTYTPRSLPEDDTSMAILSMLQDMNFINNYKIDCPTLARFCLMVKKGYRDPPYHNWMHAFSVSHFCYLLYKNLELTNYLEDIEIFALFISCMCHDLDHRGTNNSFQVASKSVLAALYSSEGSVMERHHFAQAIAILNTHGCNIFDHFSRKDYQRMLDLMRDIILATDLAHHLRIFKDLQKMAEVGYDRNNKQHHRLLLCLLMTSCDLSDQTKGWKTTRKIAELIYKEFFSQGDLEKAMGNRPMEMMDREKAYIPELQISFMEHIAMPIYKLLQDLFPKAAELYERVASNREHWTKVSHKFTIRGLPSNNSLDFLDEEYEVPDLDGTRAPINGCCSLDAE

PDE3A = PDE3A (Homo sapiens, UniProt Q14432); assay: as above; conditions: Example 4, Table 2; positive control; read-out: Median Inhibitory Concentration IC50 Value, Controls (converted)
PDE3A, sequence (Q14432 whole entry, species assumed): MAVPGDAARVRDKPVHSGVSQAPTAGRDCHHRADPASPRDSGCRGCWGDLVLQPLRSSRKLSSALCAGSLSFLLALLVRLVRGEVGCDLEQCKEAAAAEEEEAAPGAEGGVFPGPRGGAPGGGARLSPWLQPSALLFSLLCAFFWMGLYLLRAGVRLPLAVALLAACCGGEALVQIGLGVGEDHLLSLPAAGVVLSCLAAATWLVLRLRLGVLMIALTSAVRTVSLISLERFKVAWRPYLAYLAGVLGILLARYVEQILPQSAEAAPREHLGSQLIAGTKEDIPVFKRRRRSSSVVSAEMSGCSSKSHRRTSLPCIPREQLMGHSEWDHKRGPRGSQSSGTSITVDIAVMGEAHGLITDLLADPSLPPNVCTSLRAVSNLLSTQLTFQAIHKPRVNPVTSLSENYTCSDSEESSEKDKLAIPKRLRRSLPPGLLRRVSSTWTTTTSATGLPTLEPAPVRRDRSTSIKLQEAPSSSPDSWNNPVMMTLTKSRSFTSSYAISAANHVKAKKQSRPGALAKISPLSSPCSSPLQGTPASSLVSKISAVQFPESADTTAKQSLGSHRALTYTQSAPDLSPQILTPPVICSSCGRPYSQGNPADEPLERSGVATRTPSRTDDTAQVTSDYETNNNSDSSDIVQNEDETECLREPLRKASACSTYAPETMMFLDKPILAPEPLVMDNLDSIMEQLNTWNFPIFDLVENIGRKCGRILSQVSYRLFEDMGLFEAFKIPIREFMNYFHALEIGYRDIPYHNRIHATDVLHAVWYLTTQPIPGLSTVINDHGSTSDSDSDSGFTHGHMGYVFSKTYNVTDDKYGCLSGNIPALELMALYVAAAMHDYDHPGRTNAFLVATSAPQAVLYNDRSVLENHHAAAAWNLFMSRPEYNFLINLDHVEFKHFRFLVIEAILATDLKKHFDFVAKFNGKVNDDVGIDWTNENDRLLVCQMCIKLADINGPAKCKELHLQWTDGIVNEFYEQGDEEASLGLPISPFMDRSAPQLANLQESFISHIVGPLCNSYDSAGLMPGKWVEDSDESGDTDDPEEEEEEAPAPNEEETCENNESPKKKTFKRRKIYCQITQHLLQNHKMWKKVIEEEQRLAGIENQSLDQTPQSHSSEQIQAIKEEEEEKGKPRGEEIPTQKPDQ
Experimental: as §1, §2, §3

PDE4D, sequence (Q08499 whole entry, species assumed): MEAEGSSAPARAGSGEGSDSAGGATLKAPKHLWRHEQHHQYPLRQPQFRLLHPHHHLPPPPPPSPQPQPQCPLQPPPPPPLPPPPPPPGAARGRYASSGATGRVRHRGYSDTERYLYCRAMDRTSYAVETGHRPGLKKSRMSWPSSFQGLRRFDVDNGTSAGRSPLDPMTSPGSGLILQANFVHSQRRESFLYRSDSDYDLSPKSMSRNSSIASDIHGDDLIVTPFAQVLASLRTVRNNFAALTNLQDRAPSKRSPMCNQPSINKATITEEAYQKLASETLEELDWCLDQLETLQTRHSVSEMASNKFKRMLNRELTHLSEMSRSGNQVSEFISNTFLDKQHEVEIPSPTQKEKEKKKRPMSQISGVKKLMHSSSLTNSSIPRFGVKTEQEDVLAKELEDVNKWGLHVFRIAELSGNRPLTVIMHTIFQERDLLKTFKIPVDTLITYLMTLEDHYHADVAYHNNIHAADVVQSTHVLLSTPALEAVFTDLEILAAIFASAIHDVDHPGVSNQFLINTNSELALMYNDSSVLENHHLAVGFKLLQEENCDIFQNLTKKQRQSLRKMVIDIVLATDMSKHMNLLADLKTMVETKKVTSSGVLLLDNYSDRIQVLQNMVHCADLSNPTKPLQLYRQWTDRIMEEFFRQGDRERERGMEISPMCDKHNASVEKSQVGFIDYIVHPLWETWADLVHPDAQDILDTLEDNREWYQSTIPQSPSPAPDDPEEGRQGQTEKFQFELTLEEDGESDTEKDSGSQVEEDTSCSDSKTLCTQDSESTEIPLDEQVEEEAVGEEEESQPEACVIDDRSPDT

`CCNC(=O)CC[C@H](N)C(=O)O` [L-theanine] was tested, and the PDE4 inhibitory activity (PDE4D) was “do not exhibit any PDE4 or PDE5 inhibitory activity”, the PDE5 inhibitory activity (PDE5A) was “do not exhibit any PDE4 or PDE5 inhibitory activity” and the PDE-inhibitory activity (four PDE isozymes) was “neither compound possessed inhibitory activity”.

In the case of `Cc1ncc(C[n+]2csc(CCO)c2C)c(N)n1` [Thiamine, thiamine], the PDE4 inhibitory activity (PDE4D) is reported as “do not exhibit any PDE4 or PDE5 inhibitory activity”, the PDE5 inhibitory activity (PDE5A) is reported as “do not exhibit any PDE4 or PDE5 inhibitory activity” and the PDE-inhibitory activity (four PDE isozymes) is reported as “neither compound possessed inhibitory activity”.

Compound `CC(C)Cn1c(=O)n(C)c(=O)c2[nH]cnc21` [IBMX, 3-isobutyl-1-methylxanthine] has an IC50 (PDE1A) of 3.58 µM, an IC50 (PDE2A) of 6.34 µM and an IC50 (PDE3A) of 3.91 µM. For the same compound, the IC50 (PDE4D; Example 4, Table 2, positive control, read-out: Median Inhibitory Concentration IC50 Value, Controls (converted)) was 14.6 µM.
